Test system: Human Pan T Cell (IL-2 release)
Assay: IL2 released by human pan T cell upon anti-CD3/anti-CD28 stimulation (ELISA)
Type: cell-based
Settings: human pan T cells; for maximal fold induction / EC50 / EC (2-fold response): Homo sapiens, T-cell; for maximal fold induction / EC (2-fold response): 48 h; for maximal fold induction: response of IL-2 over DMSO control, anti-CD3/anti-CD28, 48 hours, ELISA, read-out: IL-2 Max Fold Response; for EC50: IL-2 response, calculated with GraphPad Prism; for EC2x (nM) / EC (2-fold response): concentration of compound that gives 200% IL-2 response (2 folds) over DMSO control
Text: For example, Example 5 describes such a functional assay for determining the effect of an HPK1 inhibitor on IL-2 & IFN-γ release upon stimulation of Pan T cells. The secreted IL-2 & IFN-γ can be measured/quantified by standard ELISA assay. Briefly, pan T cells can be isolated from peripheral blood (PB) mononuclear cells (MNCs), or PBMC, using commercially available kits, such as MACS (Miltenyl Biotec) Pan T isolation kit (Cat. No. 130-096-535). Primary human pan-T cells include CD4 and CD8 T cells as well as some gamma/delta T cell subsets. The pan-T cells can be isolated using the negative immunomagnetic separation technique without the use of columns.
Isolated pan-T cells can be dispensed into 96-well plates at 100,000 cells/well, and stimulated with immobilized anti-CD3 antibody and soluable anti-CD28 antibody, or PMA/Ionomycin as the positive control (or culture media as the negative control). Different concentrations of test compounds can be added to the cells to assess the compound effect on cytokine secretion following TCR-stimulation/CD28 co-stimulation. Stimulated cells are incubated for 2 more days, before the supernatant (containing secreted cytokines by pan-T cells) is collected from each well for ELISA assay and quantitation of IL-2 and IFN-γ.
Biology Example 8 Compound Efficacy Study on IL2 & IFN-γ Released by Human Pan T Cell
This example is an assay method that can be used to determine compound effects on IL2 & IFN-γ release using pan T cells and ELISA assay format.
3. Procedures Procedures for Pan T isolation and Reagent preparation (Day 0): 1. Cell Growth Medium: • RPMI1640: ATCC, Cat #30-2001 • 10% FBS: Gibco, Cat #10099141 • 1% Pen-Strep: Gibco, Cat #15140122 • 1% Non-essential amino: Gibco, Cat #11140050 • Beta-Mercaptoethanol: Gibco, Cat #21985023 2. Pan T Isolation Buffer Preparation:
Prepare a solution containing phosphate-buffered saline (PBS), pH 7.2, 0.5% bovine serum albumin (BSA), and 2 mM EDTA by diluting MACS® BSA Stock Solution (#130-091-376) 20 times with autoMACS® Rinsing Solution. Keep buffer at 4° C. Degas buffer before use, as air bubbles could block the column.
3. Thawing of Frozen PBMC • 1) Pre-heat medium at 37° C. water bath. • 2) Rapidly thaw cells in 37° C. water bath. • 3) Add the pre-warmed medium into 15 mL tube. Transfer cells to the tube. • 4) 300×g centrifuge for 8 min. (centrifuge increase 0, decrease 0). • 5) Wash the PBMC using Rinsing buffer. • 6) Centrifuge PBMC at 300×g for 8 min, wash it twice (centrifuge increase 9, decrease 1). • 7) Resuspend the cells with Pan T cells isolation buffer and count cells number. 4. Pan T Cells Isolation: Cell Staining with Microbead Cocktail • 1) Prepare cells and determine cell number. Filter cells by 70 μm cell strainer. • 2) Resuspend cell pellet in 40 μL of buffer per 10^7 total cells. • 3) Add 10 μL of Pan T Cell Biotin-Antibody Cocktail per 10^7 total cells. • 4) Mix well and incubate for 10 minutes in the refrigerator (ice). • 5) Add 30 μL of buffer per 10^7 total cells. • 6) Add 20 μL of Pan T Cell MicroBead Cocktail per 10^7 total cells. • 7) Mix well and incubate for 15 minutes in the refrigerator (ice). • 8) Proceed to subsequent magnetic cell separation. • Note: a. Work fast, keep cells cold, and use pre-cooled solutions (2-8° C.). b. Volumes for magnetic labeling given are for up to 10′ total cells. When working with fewer cells, use the same volumes as indicated. c. When working with higher cell numbers, scale up all reagent volumes and total volumes accordingly. d. For optimal performance it is important to obtain a single-cell suspension before magnetic labeling. Subsequent Manual Cell Separation: • 1) Place LS Column in the magnetic field of a suitable MACS Separator. For details refer to the respective MACS Column data sheet. • 2) Prepare column by rinsing with 3 mL of buffer. • 3) Apply cell suspension onto the column. Collect flow-through, which represents the enriched T cells. • 4) Wash column with 5 mL of buffer. […]

EC50 [nM] | SMILES | maximal fold induction | EC2x (nM) | EC (2-fold response) [µM]
– | COc1cc2c(cc1Nc1ncc(Cl)c(N3CCc4ccc(C(F)F)cc43)n1)CN(C)CC2 [Example 91, N-(5-chloro-4-(6-(difluoromethyl)indolin-1-yl)pyrimidin-2-yl)-6-methoxy-2-methyl-1,2,3,4-tetrahydroisoquinolin-7-amine] | < 2 | – | –
– | COc1cc2c(cc1Nc1ncc(Cl)c(N3CCc4c(C(F)F)cccc43)n1)CN(C)CC2 [Example 92, N-(5-chloro-4-(4-(difluoromethyl)indolin-1-yl)pyrimidin-2-yl)-6-methoxy-2-methyl-1,2,3,4-tetrahydroisoquinolin-7-amine] | < 2 | – | –
– | COc1cc2c(cc1Nc1ncc(Cl)c(-n3cc(C4(O)COC4)c4ccccc43)n1)CN(C)CC2 [Example 93] | < 2 | – | –
100 to 500 | CNC(=O)C1CN(c2nc(Nc3cc4c(cc3OC)CCN(C)C4)ncc2Cl)c2ccccc21 (centres unmarked) [Example 97, 1-(5-Chloro-2-((6-methoxy-2-methyl-1,2,3,4-tetrahydroisoquinolin-7-yl)amino)pyrimidin-4-yl)-N-methylindoline-3-carboxamide] | > 2 | ++ (“++”, for higher values than “+++” but less than or equal to 1 μM) | –
– | COc1cc2c(cc1Nc1ncc(Cl)c(N3CC(C(=O)NS(C)(=O)=O)c4ccccc43)n1)CN(C)CC2 (centres unmarked) [Example 98] | < 2 | – | –
– | COc1cc2c(cc1Nc1ncc(Cl)c(N3CC(C#N)c4ccccc43)n1)CN(C)CC2 (centres unmarked) [Example 99, 1-(5-Chloro-2-((6-methoxy-2-methyl-1,2,3,4-tetrahydroisoquinolin-7-yl)amino)pyrimidin-4-yl)indoline-3-carbonitrile] | < 2 | – | –
> 1000 | COc1cc2c(cc1Nc1ncc(Cl)c(N3CC(c4nn[nH]n4)c4ccccc43)n1)CN(C)CC2 (centres unmarked) [Example 100, N-(4-(3-(2H-tetrazol-5-yl)indolin-1-yl)-5-chloropyrimidin-2-yl)-6-methoxy-2-methyl-1,2,3,4-tetrahydroisoquinolin-7-amine] | > 2 | + (“+”, for greater than 1 μM) | –
– | COc1cc2c(cc1Nc1ncc(Cl)c(N3CC(C(=O)NO)c4ccccc43)n1)CN(C)CC2 (centres unmarked) [Example 101, 1-(5-Chloro-2-((6-methoxy-2-methyl-1,2,3,4-tetrahydroisoquinolin-7-yl)amino)pyrimidin-4-yl)-N-hydroxyindoline-3-carboxamide] | < 2 | – | –
– | COc1cc2c(cc1Nc1ncc(Cl)c(N3CC(C(=O)N(C)O)c4ccccc43)n1)CN(C)CC2 (centres unmarked) [Example 102] | < 2 | – | –
– | CONC(=O)C1CN(c2nc(Nc3cc4c(cc3OC)CCN(C)C4)ncc2Cl)c2ccccc21 (centres unmarked) [Example 103, 1-(5-Chloro-2-((6-methoxy-2-methyl-1,2,3,4-tetrahydroisoquinolin-7-yl)amino)pyrimidin-4-yl)-N-methoxyindoline-3-carboxamide] | < 2 | – | –
100 to 500 | COc1cc2c(cc1Nc1ncc(Cl)c(N3CC(C(=O)O)c4cc(F)ccc43)n1)CN(C)CC2 (centres unmarked) [Example 104] | > 2 | – | 0.1 to 0.5
≤ 100 | COc1cc2c(cc1Nc1ncc(Cl)c(N3CC(C(=O)O)c4ccc(F)cc43)n1)CN(C)CC2 (centres unmarked) [Example 105] | > 2 | – | 0.1 to 0.5
– | COc1ccc2c(c1)N(c1nc(Nc3cc4c(cc3OC)CCN(C)C4)ncc1Cl)CC2C(=O)O (centres unmarked) [Example 107, 1-(5-Chloro-2-((6-methoxy-2-methyl-1,2,3,4-tetrahydroisoquinolin-7-yl)amino)pyrimidin-4-yl)-6-methoxyindoline-3-carboxylic acid] | < 2 | – | –
> 1000 | COc1cc2c(cc1Nc1ncc(Cl)c(N3CC(C(=O)O)c4c(OC)cccc43)n1)CN(C)CC2 (centres unmarked) [Example 108, 1-(5-Chloro-2-((6-methoxy-2-methyl-1,2,3,4-tetrahydroisoquinolin-7-yl)amino)pyrimidin-4-yl)-4-methoxyindoline-3-carboxylic acid] | < 2 | – | –
100 to 500 | COc1cc2c(cc1Nc1ncc(F)c(N3CC(C(=O)O)c4ccccc43)n1)CN(C)CC2 (centres unmarked) [Example 109, 1-(5-Fluoro-2-((6-methoxy-2-methyl-1,2,3,4-tetrahydroisoquinolin-7-yl)amino)pyrimidin-4-yl)indoline-3-carboxylic acid] | > 2 | ++ (“++”, for higher values than “+++” but less than or equal to 1 μM) | –
– | COc1cc2c(cc1Nc1ncc(C#N)c(N3CC(C(=O)O)c4ccccc43)n1)CN(C)CC2 (centres unmarked) [Example 110, 1-(5-Cyano-2-((6-methoxy-2-methyl-1,2,3,4-tetrahydroisoquinolin-7-yl)amino)pyrimidin-4-yl)indoline-3-carboxylic acid] | < 2 | – | –
– | COC(=O)C1CN(c2nc(Nc3cc4c(cc3OC)CCN(C)C4)ncc2C(F)F)c2ccccc21 (centres unmarked) [Example 112] | < 2 | – | –
> 1000 | COc1cc2c(cc1Nc1ncc(Cl)c(-n3nc(C(=O)O)c4ccccc43)n1)CN(C)CC2 [Example 113] | < 2 | – | –
100 to 500 | COC(=O)C1CN(c2nc(Nc3cc4c(cc3OC)CCN(C)C4)ncc2Cl)c2ccccc21 (centres unmarked) [Example 115, Methyl 1-(5-chloro-2-((6-methoxy-2-methyl-1,2,3,4-tetrahydroisoquinolin-7-yl)amino)pyrimidin-4-yl)indoline-3-carboxylate] | > 2 | – | 0.1 to 0.5
500 to 1000 | COC(=O)C1(C)CN(c2nc(Nc3cc4c(cc3OC)CCN(C)C4)ncc2Cl)c2ccccc21 (centres unmarked) [Example 116] | > 2 | ++ (“++”, for higher values than “+++” but less than or equal to 1 μM) | –
– | COc1cc2c(cc1Nc1ncc(Cl)c(N3CC(C)(C(N)=O)c4ccccc43)n1)CN(C)CC2 (centres unmarked) [Example 120, 1-(5-Chloro-2-((6-methoxy-2-methyl-1,2,3,4-tetrahydroisoquinolin-7-yl)amino)pyrimidin-4-yl)-3-methylindoline-3-carboxamide] | < 2 | – | –
– | COc1cc2c(cc1Nc1ncc(Cl)c(N3CC(C)(C#N)c4ccccc43)n1)CN(C)CC2 (centres unmarked) [Example 121, 1-(5-Chloro-2-((6-methoxy-2-methyl-1,2,3,4-tetrahydroisoquinolin-7-yl)amino)pyrimidin-4-yl)-3-methylindoline-3-carbonitrile] | < 2 | – | –
– | CNC(=O)C1(C)CN(c2nc(Nc3cc4c(cc3OC)CCN(C)C4)ncc2Cl)c2ccccc21 (centres unmarked) [Example 122] | < 2 | – | –
100 to 500 | COc1cc2c(cc1Nc1ncc(Cl)c(N3CC(C)(CO)c4ccccc43)n1)CN(C)CC2 (centres unmarked) [Example 123] | < 2 | – | –
≤ 100 | COc1cc2c(cc1Nc1ncc(Cl)c(N3CC(C)(C(=O)O)c4cc(F)ccc43)n1)CN(C)CC2 (centres unmarked) [Example 125] | > 2 | – | ≤ 0.1
≤ 100 | COc1cc2c(cc1Nc1ncc(Cl)c(N3CC(C)(C(=O)O)c4ccc(F)cc43)n1)CN(C)CC2 (centres unmarked) [Example 126] | > 2 | – | ≤ 0.1

Reference: US12612424B2, “HPK1 inhibitors and uses thereof” (Regor Pharmaceuticals, Inc., priority 2019, dated 2026)
